Measured values published in patent publication US11723894B2, “Combination product for the treatment of neurological and/or psychiatric disorders” (Consejo Superior de Investigaciones Cientificas (CSIC), priority 2017, dated 2023).

Legend:
microglial cells = test: LPS-induced nitrite production (Griess) in primary microglial cultures; format: cell-based, rat; conditions: microglia; for reduction of LPS-induced nitrite in the presence of Rit: Rit 1 μM 1 h before tryptamine 1 μM, then LPS 10 μg/mL 24 h; for LPS-induced nitrite increases: tryptamine 1 μM before LPS 10 μg/mL, 24 h, vs LPS alone
Method: (§1) Example 8: DMT, DET, DPT and 5-MeO-DMT administration in vitro prevents inflammation in rat primary glial cells. […] Rat primary glial cell cultures were prepared from the cerebral cortex of 3 day old rats which were dissected, dissociated, and incubated with 0.25% trypsin/EDTA at 37° C. for 1 h. After centrifugation, the pellet was washed three times with HBSS (Gibco) and the cells were plated in poly-D-lysine (20 μg/mL) pretreated flasks (75 cm2). After 7-10 days, the flasks were agitated in an orbital shaker for 4 h at 230 rpm at 37° C. and non-adherent microglial cells were isolated and plated. Then Dulbecco's Modified Eagle's Medium (DMEM) was added to the flasks, which were agitated in a horizontal shaker at 260 rpm at 37° C. After overnight agitation, the supernatant (oligodendrocytes and some remaining microglial cells) was removed, and astrocytes (adherent cells) were collected. The purity of the cultures was >95%, as determined by immunofluorescence analysis using an anti-glial fibrillary acidic protein (GFAP; clone G-A-5; Sigma-Aldrich) antibody to identify astrocytes, and an anti-Iba1 (Wako Catalog No. 019-19741) antibody to identify microglial cells. On attaining semiconfluence, cells were administered each of the test tryptamines at 1 μM or with the combination test tryptamine+Ritanserin (Rit at 1 μM) 2 h before exposure to lipopolysaccharide (LPS, 10 μg/mL; Sigma-Aldrich) and kept in the presence of each drug or drug combination for 24 h. In combination studies, Rit was added to medium 1h before administration of the corresponding tryptamine. Vehicle-treated cultures were used as a control. After the 24 h drug exposure period, cultures were tested to assess nitrite release. To quantify nitrite concentrations in culture medium, supernatants of glial cultures were collected and mixed with an equal volume of Griess reagent (Sigma-Aldrich). Samples were then incubated at room temperature for 15 min and absorbance was measured at 540 nm on a microplate reader. Results are expressed as the mean±SEM of six replications in three different experiments

astrocytes = test: LPS-induced nitrite production (Griess) in primary astrocyte cultures; format: cell-based, rat; conditions: for reduction of LPS-induced nitrite in the presence of Rit: Rit 1 μM 1 h before tryptamine 1 μM, then LPS 10 μg/mL 24 h; for LPS-induced nitrite increases: tryptamine 1 μM before LPS 10 μg/mL, 24 h, vs LPS alone
Method: as §1

[1] = tested on: Human SH-SY5Y dopaminergic cells; test: 6-OHDA in vitro model of Parkinson's Disease, cell viability (MTT); format: cell-based; conditions: tryptamine 1 μM 1 h, then 6-OHDA 30 μM 24 h; for reduction in dopaminergic cell death in the presence of Ritanserin: Rit 1 μM 1 h; for percentage of viable dopaminergic neurons: vs 6-OHDA alone
Text: (§2) Example 9: DMT, DET, DPT and 5-MeO-DMT prevent dopaminergic cell death and inflammation (Only Measured for DMT) caused by the potent and selective dopaminergic toxin 6-OHDA in an in vitro model of Parkinson's Disease. These desired effects are preserved in the presence of the 5-HT2A antagonist Ritanserin (Rit). The Human SH-SY5Y dopaminergic cell line was obtained from Sigma-Aldrich, cultured in 96-well plates and propagated in RPMI medium containing glutamine (1%) and 15% of fetal bovine serum (FBS) plus antibiotic (gentamicin), under humidified 5% CO2 and 95% air. On attaining semiconfluence, separate groups of cells were treated with either: a) one of the four hallucinogenic tryptamines at 1 μM for 1 h, followed by 6-OHDA at 30 μM for 24 hours; or b) Rit at 1 μM for 1h, followed one of the four hallucinogenic tryptamines at 1 μM for an additional hour, at which point 6-OHDA was administered, also at 30 μM, and kept for 24 hours. Vehicle-treated cultures were used as controls. Cell cultures were then processed to assess cell viability (for all four tryptamines) and quantification of nitrite concentration (only performed in the DMT and DMT+Rit tests). Cell viability was measured using the MTT assay (Roche Diagnostic, GmbH), which is based on the ability of viable cells to reduce yellow MTT to blue formazan. After the aforementioned 24 h period in the presence of the different tryptamines or the respective tryptamine+Rit combinations, cells were incubated with MTT (0.5 mg/ml, 4 h) and subsequently solubilized in 10% SDS/0.01 M HCl for 12 h in the dark. The extent of MTT reduction was quantified by absorbance measurement at the 595 nm wavelength, as indicated in the instructions provided by the manufacturer. Nitrite quantification: Due to access to equipment problems at the time the experiments with DET, DPT and 5-MeO-DMT were conducted, the assessment of nitrite levels in the medium could only be done for the DMT experiments. These determinations were carried out as described in Example 8. Results from the cell viability tests are expressed as the percentage of viable dopaminergic cells measured. Results from nitrite determinations are expressed as actual concentrations (μM). Results from both techniques are presented in bar graphs.

[2] = as above; format: cell-based, human; conditions: human, SH-SY5Y dopaminergic cells, 6-OHDA alone 30 μM 24 h
Text: as §2

[3] = tested on: dopaminergic neurons of the Substantia nigra pars compacta; test: 6-OHDA in vivo model of Parkinson's Disease (injection into Substantia nigra pars compacta); parameters: species or system C57BL/6 mice; conditions: 5 μg 6-OHDA alone into SNpc, 3 weeks
Method: Example 10: DMT administration prevents dopaminergic cell death in a in vivo model of Parkinson's disease. Adult male C57BL/6 mice (8-12 weeks old) were used in this study. Animals were properly anaesthetized and placed in a stereotaxic apparatus (Kopf Instruments, CA). 6-OHDA (5 μg in […] PBS) was injected into the right side of the Substantia nigra pars compacta (SNpc) (coordinates from Bregma: posterior −3.2 mm; lateral +2.0 mm; ventral: +4.7 mm, according to the atlas of Paxinos and Franklin, The Mouse Brain in Stereotaxic Coordinates. 4. San Diego: Academic Press; 2012). Control animals of the same age were injected with PBS. A third group received an injection with 6-OHDA (5 μg) combined with DMT (0.1 μg) in […] PBS. Mice were then housed individually to recover and sacrificed 3 weeks later. At this point animals were anaesthetized and perfused transcardially with a 4% paraformaldehyde solution. The brains were removed, postfixed in the same solution at 4° C. overnight, cryoprotected in 20% sucrose, frozen, and 30 μm coronal sections were obtained in a cryostat. Free-floating sections were processed for double fluorescent immunohistochemistry. […] Neuronal integrity and specifically dopaminergic cell death was assessed by counting the percentage of TH^+ cells in the SNpc following a stereological approach. […] Images were analyzed using computer-assisted image analysis software (Soft Imaging System Corporation, Lakewood, Colo.). Results were expressed as the percentage of dopaminergic cell loss in the SNpc.

Row | Compound | reduction of LPS-induced nitrite in the presence of Rit (microglial cells) | LPS-induced nitrite increases (microglial cells) | reduction of LPS-induced nitrite in the presence of Rit (astrocytes) | LPS-induced nitrite increases (astrocytes) | reduction in dopaminergic cell death in the presence of Ritanserin [1] | percentage of viable dopaminergic neurons [1] | viability at 24 h, 30 μM ([2]; DET, DPT and 5-MeO-DMT experiments, read-out: cell viability, of the reference control value) [%] | cytotoxicity at 24 h, 30 μM ([2]; DMT experiments (graph A.1), read-out: reduction in the number of viable dopaminergic cells compared to vehicle treated cultures) [%] | average percentage of dopaminergic cell loss in the SNpc [3] [%]
1 | COc1ccc2[nH]cc(CCN(C)C)c2c1 [5-MeO-DMT, 5-methoxy-N,N-dimethyltryptamine] | maintained | significantly reduced | maintained | significantly reduced | maintained | significant increases | – | – | –
2 | NCCc1cc(O)c(O)cc1O [6-OHDA, 6-hydroxy-dopamine, reference compound] | – | – | – | – | – | – | ~60 | 50 | 60
3 | CCN(CC)CCc1c[nH]c2ccccc12 [DET, N,N-diethyltryptamine] | maintained | significantly reduced | maintained | significantly reduced | maintained | significant increases | – | – | –
4 | CCCN(CCC)CCc1c[nH]c2ccccc12 [DPT, N,N-dipropyltryptamine] | maintained | significantly reduced | maintained | significantly reduced | maintained | significant increases | – | – | –
